Results from publication PMC7413254 (Nature Communications, 2020).
Read-outs that look alike come from different tables or passages of the source.

Assays:
Conditions in all cases: trans-stimulation, solute 2 mM
[1] = system: non-expressing oocytes; type: cell-based, Xenopus laevis
In short: (§1)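 Oocytes (ten per treatment, ≥4 independent frogs/days) were preloaded by injecting VF-6 in 25 nL ND96 at pH 5.0, 5.5, 6.0 or 7.0, or Na^+-free choline buffer, then uptake run 1.5 h, 27.5 °C, ND96 pH 5.5 by default. Internal concentrations assumed ~400 nL oocyte volume.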

[2] = target: PfCRT^Ecu1110 (Plasmodium falciparum, UniProt Q9N623, A220S/I356L/K76T/N326D); test: cell-based; type: cell-based
Sequence of PfCRT^Ecu1110 (Q9N623 whole entry A220S/I356L/K76T/N326D): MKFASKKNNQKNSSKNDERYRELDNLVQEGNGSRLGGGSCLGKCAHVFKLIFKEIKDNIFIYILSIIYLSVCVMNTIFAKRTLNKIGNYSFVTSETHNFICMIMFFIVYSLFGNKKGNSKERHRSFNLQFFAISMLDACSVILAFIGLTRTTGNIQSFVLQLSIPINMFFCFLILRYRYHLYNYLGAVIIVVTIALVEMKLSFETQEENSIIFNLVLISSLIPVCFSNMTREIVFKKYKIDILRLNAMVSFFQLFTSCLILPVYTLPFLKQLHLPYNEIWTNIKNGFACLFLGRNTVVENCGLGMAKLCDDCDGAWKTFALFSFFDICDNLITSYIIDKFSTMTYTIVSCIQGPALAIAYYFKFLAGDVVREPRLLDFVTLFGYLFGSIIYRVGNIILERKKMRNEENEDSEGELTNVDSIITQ
In short: as §1

[3] = target: T1, PfNT1 (Plasmodium falciparum, UniProt Q8IDM6); test: cell-based; type: cell-based
T1 construct: expressed in transfected cells; host or cells: Xenopus laevis oocytes (stage V-VI), cRNA-injected
T1 sequence (Q8IDM6 whole entry): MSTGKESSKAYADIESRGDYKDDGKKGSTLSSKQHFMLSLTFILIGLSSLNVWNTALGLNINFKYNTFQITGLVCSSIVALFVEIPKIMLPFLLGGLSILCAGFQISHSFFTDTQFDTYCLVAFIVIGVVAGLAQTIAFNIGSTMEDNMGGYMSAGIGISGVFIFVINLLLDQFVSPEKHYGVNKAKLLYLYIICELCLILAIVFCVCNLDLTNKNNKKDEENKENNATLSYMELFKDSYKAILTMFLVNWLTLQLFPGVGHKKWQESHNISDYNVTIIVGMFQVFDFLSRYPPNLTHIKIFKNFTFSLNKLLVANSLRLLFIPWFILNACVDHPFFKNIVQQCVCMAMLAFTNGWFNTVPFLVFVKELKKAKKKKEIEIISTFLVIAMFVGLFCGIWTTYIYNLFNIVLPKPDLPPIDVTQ
In short: as §1

[4] = target: PfCRT^Dd2 (Plasmodium falciparum, UniProt Q9N623, A220S/I356T/K76T/M74I/N326S/N75E/Q271E/R371I); test: cell-based; type: cell-based
Sequence of PfCRT^Dd2 (Q9N623 whole entry A220S/I356T/K76T/M74I/N326S/N75E/Q271E/R371I): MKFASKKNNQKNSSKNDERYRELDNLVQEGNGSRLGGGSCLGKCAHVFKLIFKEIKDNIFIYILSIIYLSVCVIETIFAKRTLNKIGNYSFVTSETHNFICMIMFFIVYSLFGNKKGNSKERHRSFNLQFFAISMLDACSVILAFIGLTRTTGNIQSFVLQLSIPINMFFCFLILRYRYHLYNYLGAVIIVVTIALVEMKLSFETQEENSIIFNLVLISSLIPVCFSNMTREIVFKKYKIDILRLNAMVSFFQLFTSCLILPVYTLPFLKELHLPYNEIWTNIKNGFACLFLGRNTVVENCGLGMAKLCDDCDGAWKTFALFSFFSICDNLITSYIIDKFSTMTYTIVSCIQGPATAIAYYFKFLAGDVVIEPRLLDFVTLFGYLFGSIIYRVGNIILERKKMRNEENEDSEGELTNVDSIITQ
In short: as §1

[5] = target: PfCRT^3D7 (Plasmodium falciparum, UniProt Q8IBZ9); test: cell-based; type: cell-based
Sequence of PfCRT^3D7 (Q8IBZ9 59-398): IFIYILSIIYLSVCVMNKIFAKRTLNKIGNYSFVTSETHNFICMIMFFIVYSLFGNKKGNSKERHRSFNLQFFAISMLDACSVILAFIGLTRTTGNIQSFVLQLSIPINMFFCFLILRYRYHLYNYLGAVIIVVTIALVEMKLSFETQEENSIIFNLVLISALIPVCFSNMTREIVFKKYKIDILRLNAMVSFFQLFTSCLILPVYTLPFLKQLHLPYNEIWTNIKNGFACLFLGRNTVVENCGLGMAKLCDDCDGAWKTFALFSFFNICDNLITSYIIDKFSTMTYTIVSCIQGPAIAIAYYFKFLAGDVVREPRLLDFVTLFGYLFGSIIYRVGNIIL
In short: as §1

Substance	[3H]CQ transport, non-expressing oocytes ([1]; Experiment 1) [% PfCRTDd2 control]	[3H]CQ transport, non-expressing oocytes ([1]; Experiment 2) [% PfCRTDd2 control]	[3H]CQ transport, non-expressing oocytes ([1]; Experiment 3) [% PfCRTDd2 control]	[3H]CQ transport, non-expressing oocytes ([1]; Experiment 4) [% PfCRTDd2 control]	[3H]CQ transport, PfCRTEcu1110 ([2]; Experiment 1) [% PfCRTDd2 control]	[3H]CQ transport, PfCRTEcu1110 ([2]; Experiment 2) [% PfCRTDd2 control]	[3H]CQ transport, PfCRTEcu1110 ([2]; Experiment 3) [% PfCRTDd2 control]	[3H]CQ transport, PfCRTEcu1110 ([2]; Experiment 4) [% PfCRTDd2 control]	[3H]CQ transport, PfNT1 ([3]; Experiment 1) [% PfCRTDd2 control]	[3H]CQ transport, PfNT1 ([3]; Experiment 2) [% PfCRTDd2 control]	[3H]CQ transport, PfNT1 ([3]; Experiment 3) [% PfCRTDd2 control]	[3H]CQ transport, PfNT1 ([3]; Experiment 4) [% PfCRTDd2 control]	[3H]CQ transport, PfCRTDd2 ([4]; Experiment 1) [% PfCRTDd2 control]	[3H]CQ transport, PfCRTDd2 ([4]; Experiment 2) [% PfCRTDd2 control]	[3H]CQ transport, PfCRTDd2 ([4]; Experiment 3) [% PfCRTDd2 control]	[3H]CQ transport, PfCRTDd2 ([4]; Experiment 4) [% PfCRTDd2 control]	[3H]CQ transport, PfCRT3D7 ([5]; Experiment 1) [% PfCRTDd2 control]	[3H]CQ transport, PfCRT3D7 ([5]; Experiment 2) [% PfCRTDd2 control]	[3H]CQ transport, PfCRT3D7 ([5]; Experiment 3) [% PfCRTDd2 control]	[3H]CQ transport, PfCRT3D7 ([5]; Experiment 4) [% PfCRTDd2 control]
DPVNF [VF-6-derived peptide]	2.53	2.61	2.41	2.43	45.52	43.68	37.35	43.35	3.85	3.98	3.94	3.99	116.36	119.52	110.63	125.53	17.63	14.86	18.47	17.33
PVNF [VF-6-derived peptide]	2.32	2.21	2.25	2.16	47.86	40.15	37.75	41.78	3.55	3.73	3.85	3.52	115.75	122.53	112.64	109.74	16.17	15.91	16.12	16.15
VDPVN [VF-6-derived peptide]	2.84	2.91	2.78	2.94	40.67	44.84	45.43	46.24	2.85	2.88	2.95	2.89	120.53	112.56	120.67	119.43	18.56	19.52	15.43	18.35
